Experiments:
[1] = DRUGMATRIX: Phosphodiesterase PDE3 enzyme inhibition (substrate: [3H]cAMP + cAMP); assay type: tissue-based, Homo sapiens; conditions: platelet; Not Active = under 50% inhibition at 10 µM
[2] = DRUGMATRIX: Potassium Channel [KATP] radioligand binding (ligand: [3H] Glyburide); assay type: cell membranes, Membrane; conditions: hit-t15; Not Active = under 50% inhibition at 10 µM
[3] = DRUGMATRIX: Leukotriene, BLT (LTB4) radioligand binding (ligand: [3H]LTB4); assay type: cell membranes, Membrane; conditions: u-937; Not Active = under 50% inhibition at 10 µM
[4] = DRUGMATRIX: Serotonin (5-Hydroxytryptamine) 5-HT3 radioligand binding (ligand: [3H] GR-65630); assay type: cell membranes, Membrane; conditions: hek293; Not Active = under 50% inhibition at 10 µM
[5] = target: Beta-1 adrenergic receptor (Homo sapiens, UniProt P08588); test: DRUGMATRIX: Adrenergic beta1 radioligand binding (ligand: [125I] Cyanopindolol); assay type: cell membranes, CHO-K1, Membrane; conditions: cho-k1; Not Active = under 50% inhibition at 10 µM
Beta-1 adrenergic receptor, sequence (P08588 whole entry): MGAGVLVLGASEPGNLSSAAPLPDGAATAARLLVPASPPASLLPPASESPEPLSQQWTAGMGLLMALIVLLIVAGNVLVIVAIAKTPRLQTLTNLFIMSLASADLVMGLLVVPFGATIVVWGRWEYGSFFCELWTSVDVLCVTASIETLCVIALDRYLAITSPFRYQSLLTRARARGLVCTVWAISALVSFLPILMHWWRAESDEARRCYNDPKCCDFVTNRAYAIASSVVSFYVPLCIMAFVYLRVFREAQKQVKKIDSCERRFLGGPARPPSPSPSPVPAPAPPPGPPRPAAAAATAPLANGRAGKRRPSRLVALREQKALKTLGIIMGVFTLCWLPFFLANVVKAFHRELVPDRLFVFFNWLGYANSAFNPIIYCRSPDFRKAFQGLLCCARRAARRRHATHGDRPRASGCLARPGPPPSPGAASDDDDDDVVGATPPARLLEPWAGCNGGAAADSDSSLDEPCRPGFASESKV

[6] = DRUGMATRIX: ATPase, Na+/K+ enzyme inhibition (substrate: ATP); assay type: tissue-based, Sus scrofa, Heart; conditions: Not Active = under 50% inhibition at 10 µM
[7] = target: Sodium-dependent dopamine transporter (Homo sapiens, UniProt Q01959); test: DRUGMATRIX: Dopamine Transporter radioligand binding (ligand: [125I] RTI-55); assay type: cell membranes, CHO-K1, Membrane; conditions: cho-k1; Not Active = under 50% inhibition at 10 µM
Sodium-dependent dopamine transporter, sequence (Q01959 whole entry): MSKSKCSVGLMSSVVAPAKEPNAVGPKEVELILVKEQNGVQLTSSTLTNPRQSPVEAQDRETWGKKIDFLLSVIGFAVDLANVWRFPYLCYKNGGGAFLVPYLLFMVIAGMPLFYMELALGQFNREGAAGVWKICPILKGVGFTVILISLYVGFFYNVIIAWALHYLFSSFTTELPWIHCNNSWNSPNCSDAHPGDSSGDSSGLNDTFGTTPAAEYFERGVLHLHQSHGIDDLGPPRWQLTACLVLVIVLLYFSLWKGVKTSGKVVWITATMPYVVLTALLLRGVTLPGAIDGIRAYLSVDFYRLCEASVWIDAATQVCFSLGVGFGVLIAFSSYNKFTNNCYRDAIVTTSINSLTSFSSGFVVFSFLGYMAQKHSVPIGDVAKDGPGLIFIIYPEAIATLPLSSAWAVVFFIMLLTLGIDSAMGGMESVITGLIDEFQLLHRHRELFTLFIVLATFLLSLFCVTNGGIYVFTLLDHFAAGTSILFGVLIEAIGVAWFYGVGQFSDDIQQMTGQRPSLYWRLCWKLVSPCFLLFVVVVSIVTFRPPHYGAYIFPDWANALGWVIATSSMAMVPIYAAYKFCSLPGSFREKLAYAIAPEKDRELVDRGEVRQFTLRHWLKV

[8] = DRUGMATRIX: Tumor Necrosis Factor (TNF), Non-Selective radioligand binding (ligand: [125I] TNF-alpha); assay type: cell membranes, Membrane; conditions: u-937; Not Active = under 50% inhibition at 10 µM
[9] = DRUGMATRIX: beta-Lactamase enzyme inhibition (substrate: Nitrocefin); set-up: species or system Bacillus cereus; conditions: Not Active = under 50% inhibition at 10 µM

ZIRCONIUM(IV) CHLORIDE
Not Active: IC50 [1] | Ki [1] | IC50 [2] | Ki [2] | IC50 [3] | Ki [3] | IC50 [4] | Ki [4] | IC50 [5] | Ki [5] | IC50 [6] | Ki [6] | IC50 [7] | Ki [7] | IC50 [8] | Ki [8] | IC50 [9] | Ki [9]

— ChEMBL document CHEMBL1909046, “DrugMatrix in vitro pharmacology data”
